Tested on: FCA-Induced Hyperalgesia
Experiment: FCA-Induced Hyperalgesia in the Guinea Pig
Format: in vivo
Conditions: dose of 5 mg/kg po
Protocol: (b) FCA-Induced Hyperalgesia in the Guinea Pig Compounds having a pKb>7.0 in vitro, according to model (a) were tested in this model of hyperalgesia (see WO 2004/024710 for details) and shown to be active.

**Q.** Which “activity in FCA-induced hyperalgesia model” value does the source give for `Cn1c(=O)ccc2c(NC(=O)C3CCN(c4ccc(Cl)cc4)CC3)cccc21` [Example 1, 1-(4-Chlorophenyl)-N-(1-methyl-2-oxo-1,2-dihydro-5-quinolinyl)-4-piperidinecarboxamide] here?
**A.** significant activity

— patent US20110059979A1, “Piperidine/Cyclohexane Carboxamide Derivatives For Use as Vanilloid Receptor Modulators” (GLAXO GROUP LIMITED, priority 2003, published 2011)
